The subject of this assay is 292921-168-R-J2-PDC KRAS tumor spheroid viability. As to the kind of experiment: Anticancer human tumor 292921-168-R-J2-PDC patient-derived pancreatic carcinoma cell line growth inhibition [KRAS2]. The conditions noted are these: spheroids with HUVEC and MSC; for viability, T/C: stronger effect = lower value. The method in brief:
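KRAS-mutant tumor cells were grown as spheroids with HUVEC endothelial cells and human MSCs as stroma. Targeted agents were tested alone and with KRAS pathway inhibitors. Doses started at or near clinical Cmax, or 10 microM, descending half-log.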

Each structure is given as a SMILES string. Bounds are passed on as bounds.

By IC50 is commonly meant the concentration at which inhibition is half-maximal. As usually defined, the viability, T/C is the result in the treated group divided by that in the control group, in per cent.
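Further: drug exposure lasted seven days after spheroids formed for three days.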
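Wherever viability, T/C is given: percent of DMSO vehicle control viability which is 100%.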

In the case of `CCN1CCN(Cc2ccc(Nc3ncc(F)c(-c4cc(F)c5nc(C)n(C(C)C)c5c4)n3)nc2)CC1` + COc1cc2nc(C)nc(NC(C)c3cc(N)cc(C(F)(F)F)c3)c2cc1OC1CCOC1, the IC50 reads like this: (curve of first compound, second compound 0.1 µM) 20.7 nM; (curve of first compound, second compound 0.316 µM) 13.2 nM; (curve of first compound, second compound 1 µM) 9.76 nM; (curve of first compound, second compound 3.16 µM) 3.28 nM; (curve of first compound, second compound 10 µM) < 3.16 nM. Also, the viability, T/C by setting is: (second compound 0.1 µM, first compound 0.00316 µM) 74.7%; (second compound 0.1 µM, first compound 0.01 µM) 60.1%; (second compound 0.1 µM, first compound 0.0316 µM) 42.2%; (second compound 0.1 µM, first compound 0.1 µM) 36%; (second compound 0.1 µM, first compound 0.316 µM) 29.8%; (second compound 0.1 µM, first compound 1 µM) 22.2%. In addition, the viability, T/C was 67.4% (second compound 0.316 µM, first compound 0.00316 µM); 54.1% (second compound 0.316 µM, first compound 0.01 µM); 39.2% (second compound 0.316 µM, first compound 0.0316 µM); 32.8% (second compound 0.316 µM, first compound 0.1 µM); 28.4% (second compound 0.316 µM, first compound 0.316 µM); 22.1% (second compound 0.316 µM, first compound 1 µM). Also, the viability, T/C is, setting by setting: (second compound 1 µM, first compound 0.00316 µM) 60.7%; (second compound 1 µM, first compound 0.01 µM) 49.7%; (second compound 1 µM, first compound 0.0316 µM) 40.3%; (second compound 1 µM, first compound 0.1 µM) 30.8%; (second compound 1 µM, first compound 0.316 µM) 25.7%; (second compound 1 µM, first compound 1 µM) 21.3%. The viability, T/C by setting is: (second compound 3.16 µM, first compound 0.00316 µM) 51%; (second compound 3.16 µM, first compound 0.01 µM) 35.6%; (second compound 3.16 µM, first compound 0.0316 µM) 30.8%; (second compound 3.16 µM, first compound 0.1 µM) 22.9%; (second compound 3.16 µM, first compound 0.316 µM) 22%; (second compound 3.16 µM, first compound 1 µM) 18.6%. Further, the viability, T/C by setting is: (second compound 10 µM, first compound 0.00316 µM) 22.8%; (second compound 10 µM, first compound 0.01 µM) 15.9%; (second compound 10 µM, first compound 0.0316 µM) 14.7%; (second compound 10 µM, first compound 0.1 µM) 14.8%; (second compound 10 µM, first compound 0.316 µM) 12.2%; (second compound 10 µM, first compound 1 µM) 0.58%.

With `COc1cc(Nc2ncc3c(n2)-c2ccc(Cl)cc2C(c2c(F)cccc2OC)=NC3)ccc1C(=O)O`, the viability, T/C by setting is: (compound 0.0316 µM) 30.3% [middle of 5 runs]; (compound 0.1 µM) 28% [middle of 5 runs]; (compound 0.316 µM) 30.6% [middle of 5 runs]; (compound 1 µM) 28.6% [middle of 5 runs]; (compound 3.16 µM) 23.7% [middle of 5 runs]; (compound 10 µM) 17.8% [middle of 5 runs]. Under “curve of compound”, the IC50 was < 31.6 nM.
